Reference: PubChem BioAssay (NCI)
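Five compound concentrations were applied to cells in 96-well plates for 48 hours; endpoints were derived by simple linear interpolation of the resulting dose-response curve. Abbreviation: GI50, concentration required for 50% inhibition of growth. TGI: concentration producing complete growth inhibition.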

How the values were obtained:
Experiment in all cases: growth of human tumour cells (NCI), 48 h
NCI-H226 lung = system: NCI-H226 lung
NCI-H23 lung = system: NCI-H23 lung
NCI-H460 lung = system: NCI-H460 lung
NCI-H522 lung = system: NCI-H522 lung
NCI/ADR-RES ovarian = system: NCI/ADR-RES ovarian
OVCAR-3 ovarian = system: OVCAR-3 ovarian
OVCAR-4 ovarian = system: OVCAR-4 ovarian
OVCAR-5 ovarian = system: OVCAR-5 ovarian
PC-3 prostate = system: PC-3 prostate
RPMI-8226 leukemia = system: RPMI-8226 leukemia
RXF 393 renal = system: RXF 393 renal
SF-268 CNS = system: SF-268 CNS
SF-295 CNS = system: SF-295 CNS
SF-539 CNS = system: SF-539 CNS
SK-MEL-2 melanoma = system: SK-MEL-2 melanoma
SK-MEL-28 melanoma = system: SK-MEL-28 melanoma
SK-MEL-5 melanoma = system: SK-MEL-5 melanoma
SK-OV-3 ovarian = system: SK-OV-3 ovarian
SN12C renal = system: SN12C renal
SNB-19 CNS = system: SNB-19 CNS
SNB-75 CNS = system: SNB-75 CNS
SR leukemia = system: SR leukemia
SW-620 colon = system: SW-620 colon
T-47D breast = system: T-47D breast
TK-10 renal = system: TK-10 renal
U251 CNS = system: U251 CNS
UACC-257 melanoma = system: UACC-257 melanoma
UACC-62 melanoma = system: UACC-62 melanoma
UO-31 renal = system: UO-31 renal

**Q.** How did the TGI (NCI-H226 lung) turn out when `CC1=C(CCC=NNC(N)=O)C2=C(C)C3(CC3)[C@@](C)(O)C(=O)C2=C1` was run?
**A.** 0.646 µM

**Q.** And the GI50 (NCI-H23 lung)?
**A.** 0.0172 µM

**Q.** What about the TGI (NCI-H23 lung) of the same molecule?
**A.** 0.045 µM

**Q.** And the GI50 (NCI-H460 lung)?
**A.** 0.0243 µM

**Q.** And the TGI (NCI-H460 lung)?
**A.** 0.218 µM

**Q.** What about the GI50 (NCI-H522 lung) of the same molecule?
**A.** 0.165 µM

**Q.** What about the TGI (NCI-H522 lung) of the same molecule?
**A.** 0.414 µM

**Q.** What about the GI50 (NCI/ADR-RES ovarian) of the same molecule?
**A.** 0.104 µM

**Q.** What about the TGI (NCI/ADR-RES ovarian) of the same molecule?
**A.** 0.407 µM

**Q.** What about the GI50 (OVCAR-3 ovarian) of the same molecule?
**A.** 0.132 µM

**Q.** What about the TGI (OVCAR-3 ovarian) of the same molecule?
**A.** 0.828 µM

**Q.** What about the GI50 (OVCAR-4 ovarian) of the same molecule?
**A.** 0.172 µM

**Q.** What about the TGI (OVCAR-4 ovarian) of the same molecule?
**A.** 0.574 µM

**Q.** What about the GI50 (OVCAR-5 ovarian) of the same molecule?
**A.** 0.0451 µM

**Q.** What about the TGI (OVCAR-5 ovarian) of the same molecule?
**A.** 0.364 µM

**Q.** And the GI50 (PC-3 prostate)?
**A.** 0.175 µM

**Q.** And the TGI (PC-3 prostate)?
**A.** 1.96 µM

**Q.** What about the GI50 (RPMI-8226 leukemia) of the same molecule?
**A.** 3.02 µM

**Q.** And the TGI (RPMI-8226 leukemia)?
**A.** > 35.2 µM

**Q.** And the GI50 (RXF 393 renal)?
**A.** 0.0194 µM

**Q.** And the TGI (RXF 393 renal)?
**A.** 0.0418 µM

**Q.** And the GI50 (SF-268 CNS)?
**A.** 0.0343 µM

**Q.** What about the TGI (SF-268 CNS) of the same molecule?
**A.** 0.423 µM

**Q.** And the GI50 (SF-295 CNS)?
**A.** 0.0893 µM

**Q.** And the TGI (SF-295 CNS)?
**A.** 1.21 µM

**Q.** And the GI50 (SF-539 CNS)?
**A.** 0.032 µM

**Q.** What about the TGI (SF-539 CNS) of the same molecule?
**A.** 0.128 µM

**Q.** And the GI50 (SK-MEL-2 melanoma)?
**A.** 0.193 µM

**Q.** And the TGI (SK-MEL-2 melanoma)?
**A.** 0.362 µM

**Q.** What about the GI50 (SK-MEL-28 melanoma) of the same molecule?
**A.** 0.187 µM

**Q.** And the TGI (SK-MEL-28 melanoma)?
**A.** 0.369 µM

**Q.** And the GI50 (SK-MEL-5 melanoma)?
**A.** 0.094 µM

**Q.** What about the TGI (SK-MEL-5 melanoma) of the same molecule?
**A.** 0.248 µM

**Q.** And the GI50 (SK-OV-3 ovarian)?
**A.** 0.0422 µM

**Q.** And the TGI (SK-OV-3 ovarian)?
**A.** 0.334 µM

**Q.** And the GI50 (SN12C renal)?
**A.** 0.0923 µM

**Q.** What about the TGI (SN12C renal) of the same molecule?
**A.** 0.654 µM

**Q.** What about the GI50 (SNB-19 CNS) of the same molecule?
**A.** 0.225 µM

**Q.** What about the TGI (SNB-19 CNS) of the same molecule?
**A.** 0.894 µM

**Q.** What about the GI50 (SNB-75 CNS) of the same molecule?
**A.** 0.0725 µM

**Q.** And the TGI (SNB-75 CNS)?
**A.** 0.226 µM

**Q.** And the GI50 (SR leukemia)?
**A.** 1.82 µM

**Q.** What about the TGI (SR leukemia) of the same molecule?
**A.** > 100 µM

**Q.** What about the GI50 (SW-620 colon) of the same molecule?
**A.** 1.44 µM

**Q.** What about the TGI (SW-620 colon) of the same molecule?
**A.** 3.74 µM

**Q.** And the GI50 (T-47D breast)?
**A.** 0.0862 µM

**Q.** And the TGI (T-47D breast)?
**A.** 2.74 µM

**Q.** What about the GI50 (TK-10 renal) of the same molecule?
**A.** 0.278 µM

**Q.** What about the TGI (TK-10 renal) of the same molecule?
**A.** 1.26 µM

**Q.** And the GI50 (U251 CNS)?
**A.** 0.21 µM

**Q.** And the TGI (U251 CNS)?
**A.** 0.936 µM

**Q.** What about the GI50 (UACC-257 melanoma) of the same molecule?
**A.** 0.19 µM

**Q.** And the TGI (UACC-257 melanoma)?
**A.** 0.427 µM

**Q.** What about the GI50 (UACC-62 melanoma) of the same molecule?
**A.** 0.142 µM

**Q.** And the TGI (UACC-62 melanoma)?
**A.** 0.292 µM

**Q.** And the GI50 (UO-31 renal)?
**A.** 0.0712 µM

**Q.** And the TGI (UO-31 renal)?
**A.** 0.277 µM
